From patent US20110312934A1, “2-ALKYL-6-CYCLOAMINO-3-(PYRIDIN-4-YL)IMIDAZO[1,2-B]-PYRIDAZINE DERIVATIVES, PREPARATION THEREOF, AND THERAPEUTIC APPLICATION THEREOF” (SANOFI-AVENTIS, priority 2008, published 2011)

What was measured:
[1] = molecular target: T1, casein kinase 1 epsilon (CK1 epsilon) (Homo sapiens, UniProt P49674); assay: Filter-plate assay of ATP-33P, inhibition of phosphorylation of casein by CK1 epsilon; type: biochemical; details: ATP-33P filtration, cold ATP 10 μM final, 2 hours at ambient temperature, read-out: CK1 epsilon Cl50
T1 construct: Invitrogen Corporation (alternative)
T1 sequence (P49674 whole entry): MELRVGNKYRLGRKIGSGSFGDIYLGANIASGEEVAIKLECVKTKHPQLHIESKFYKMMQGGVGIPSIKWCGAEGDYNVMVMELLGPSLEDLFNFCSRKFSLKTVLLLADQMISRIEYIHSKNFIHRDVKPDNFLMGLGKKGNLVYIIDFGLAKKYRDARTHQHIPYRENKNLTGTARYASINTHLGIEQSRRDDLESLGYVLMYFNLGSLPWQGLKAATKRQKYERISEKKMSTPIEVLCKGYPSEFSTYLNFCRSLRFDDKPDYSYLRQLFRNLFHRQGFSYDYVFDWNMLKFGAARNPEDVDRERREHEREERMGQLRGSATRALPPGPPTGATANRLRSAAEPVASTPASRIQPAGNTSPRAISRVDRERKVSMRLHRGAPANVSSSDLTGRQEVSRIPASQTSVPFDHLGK
Experimental: The capacity of the compounds of the invention to inhibit the phosphorylation of casein by casein kinase 1 epsilon and delta may be evaluated according to the procedure described in US 2005/0131012.
Filter-Plate Assay of ATP-^33P for the Screening of CK1 Epsilon Inhibitors:
The effect of the compounds on inhibition of the phosphorylation of casein by the enzyme casein kinase 1 epsilon (CK1 epsilon) is measured, using a casein assay with filtration of ATP-^33P in vitro.
Casein kinase 1 epsilon (0.58 mg/ml) is obtained via fermentation and purification processes performed according to methods that are well known to those skilled in the art, or may also be obtained from Invitrogen Corporation™ (human CK1 epsilon).
The compounds are tested at five different concentrations so as to generate IC50 values, i.e. the concentration at which a compound is capable of inhibiting the enzymatic activity by 50%, or alternatively the percentage of inhibition at a concentration of 10 micromolar.
“U”-bottomed Falcon plates are prepared by placing 5 μl of solutions of the compounds according to the invention at concentrations of 10, 1, 0.1, 0.01 or 0.001 μM in different wells. The solutions of the compounds according to the invention at these various concentrations are prepared by diluting in a test buffer (50 mM Tris, pH 7.5, […], 2 mM DTT and 1 mM EGTA) a stock solution in DMSO at a concentration of 10 mM. Next, 5 μl of dephosphorylated casein are added to a final concentration of 0.2 μg/μl, 20 μl of CK1 epsilon to a final concentration of 3 ng/μl, and 20 μl of ATP-^33P to a final concentration of 0.02 μCi/μl mixed with cold ATP (10 μM final—approximately 2×10^6 CPM per well). The final total test volume per well is equal to 50 μl.
The “U”-bottomed Falcon® test plate mentioned above is vortexed, and then incubated at ambient temperature for 2 hours. After 2 hours, the reaction is stopped by adding an ice-cold solution of 65 μl of ATP (2 mM) prepared in test buffer.
100 μl of the reaction mixture are then transferred from the “U”-bottomed Falcon® plate into Millipore® MAPH filter plates, preimpregnated with 25 μl of ice-cold 100% TCA. […]
The plates are left to dry overnight at ambient temperature. […] The radiation emitted by each well is then measured for 2 minutes in a Packard® Topcount NXT scintillation counter, in which the values of CPM/well are measured.
The percentage inhibition of the capacity of the enzyme to phosphorylate the substrate (casein) is determined for each concentration of compound tested. These inhibition data expressed as percentages are used to calculate the IC50 value for each compound compared with the controls.
The kinetic studies determined the KM value for ATP as being 21 μM in this test system.

[2] = tested on: Mper1-luc Rat-1 (P2C4) fibroblasts; assay: Circadian cell assay (mPer1 luciferase reporter, period prolongation); type: cell-based; details: effective concentration that induced a 1-hour prolongation of the circadian period, interpolated from hyperbolic curve
Experimental: Mper1-luc Rat-1 (P2C4) fibroblast cultures were prepared by dividing the cultures every 3-4 days (approximately 10-20% of confluence) on 150 cm^2 degassed polystyrene tissue culture flasks (Falcon® #35-5001) and maintained in growth medium [EMEM (Cellgro #10-0,0-CV); 10% foetal bovine serum (FBS; Gibco #16000-044); and 50 I.U./ml of penicillin-streptomycin (Cellgro #30-001-CI)] at 37° C. and under 5% CO2.
Cells obtained from Rat-1 fibroblast cultures at 30-50% of confluence as described above were co-transfected with vectors containing the selection marker for resistance to zeocin for a stable transfection and a luciferase reporter gene controlled by the mPer-1 promoter. After 24 to 48 hours, the cultures were divided on 96-well plates and maintained in growth medium supplemented with 50-100 μg/ml of zeocin (Invitrogen® #45-0430) for 10-14 days. The zeocin-resistant stable transfectants were evaluated for the expression of the reporter by adding 100 μM luciferin (Promega® #E1603®) to the growth medium and by assaying the luciferase activity on a TopCount® scintillation counter (Packard Model #C384V00). The Rat-1 cell clones expressing both zeocin resistance and lucerifase activity controlled by mPer1 were serum-shock synchronized with 50% horse serum [HS (Gibco® #16050-122)] and the activity of the circadian reporter was evaluated. The P2C4 clone of Mper1-luc Rat-1 fibroblasts was selected to test the compound.
Mper1-luc Rat-1 (P2C4) fibroblasts at 40-50% of confluence, obtained according to the protocol described above, were plated out onto 96-well opaque tissue culture plates (Perkin Elmer® #6005680). The cultures are maintained in growth medium supplemented with 100 μg/ml of zeocin (Invitrogen #45-0430) until they reach 100% of confluence (48-72 h). The cultures were then synchronized with 100 μl of synchronization medium [EMEM (Cellgro #10-0,0-CV); 100 I.U./ml of penicillin-streptomycin (Cellgro #30-001-C1); 50% HS (Gibco #16050-122)] for 2 hours at 37° C. and under 5% CO2. After synchronization, the cultures were rinsed with 100 μl of EMEM (Cellgro #10-010-CV) for 10 minutes at ambient temperature. After rinsing, the medium was replaced with 300 μl of CO2 independent medium [CO2I (Gibco #18045-088); 2 mM L-glutamine (Cellgro #25-005-C1); 100 U.I./ml of penicillin-streptomycin (Cellgro #30-001-C1); 100 μM luciferin (Promega #E 1603)]. […]
The two methods produced a virtually identical period estimation on a range of circadian periods. […] The data were analysed by adjusting a hyperbolic curve to the data expressed as change of period (y-axis) as a function of the concentration of the test compound (x-axis) in the XLfit™ software and the CE Delta (t+1 h) was interpolated from this curve.

human CK1 delta = molecular target: T2, human CK1 delta (Homo sapiens, UniProt P48730); assay: FRET Z'Lyte kinase assay, CK1 delta; type: biochemical; details: peptide substrate SER/THR 11 2 μM, ATP 4 times the KM, read-out: CK1 delta Cl50
T2 construct: purchased Invitrogen Corporation PV3665
T2 sequence (P48730 whole entry): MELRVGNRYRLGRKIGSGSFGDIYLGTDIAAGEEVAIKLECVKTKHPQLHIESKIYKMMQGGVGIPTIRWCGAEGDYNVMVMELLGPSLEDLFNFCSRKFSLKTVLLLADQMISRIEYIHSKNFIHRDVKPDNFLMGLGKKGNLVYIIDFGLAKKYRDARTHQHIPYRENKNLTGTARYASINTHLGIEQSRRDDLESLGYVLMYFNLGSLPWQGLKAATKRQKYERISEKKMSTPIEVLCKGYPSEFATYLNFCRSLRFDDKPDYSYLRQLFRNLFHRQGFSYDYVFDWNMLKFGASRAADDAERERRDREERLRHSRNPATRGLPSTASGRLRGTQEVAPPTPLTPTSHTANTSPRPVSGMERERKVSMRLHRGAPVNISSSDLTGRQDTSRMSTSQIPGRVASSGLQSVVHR
Description: The capacity of the compounds of the invention to inhibit the phosphorylation of casein by casein kinase 1 epsilon and delta may be evaluated using a FRET (Fluorescence Resonance Energy Transfer) fluorescence test with the aid of the Z'Lyte™ kinase assay Kit (reference PV3670; Invitrogen Corporation™) according to the manufacturer's instructions.
The casein kinases 1 used are obtained from Invitrogen Corporation (human CK1 epsilon PV3500 and human CK1 delta PV3665).
A peptide substrate, labelled at both ends with a fluorophore donor group (coumarin) and a fluorophore acceptor group (fluorescein), constituting a FRET system is phosphorylated in the presence of ATP by casein kinase 1 epsilon or delta in the presence of increasing concentrations of compounds of the invention.
The mixture is treated with a site-specific protease that specifically cleaves the peptide substrate to form two fluorescent fragments having a large fluorescence emission ratio.
The fluorescence observed is thus related to the capacity of the products of the invention to inhibit the phosphorylation of the peptide substrate by casein kinase 1 epsilon or casein kinase 1 delta. […]
The emitted fluorescence is measured at wavelengths of 445 and 520 nm (excitation at 400 nm).

| IC50 [1] [nM] | IC50 (human CK1 delta) [nM] | Structure (SMILES) | CE Delta (t + 1 h) [2] [nM] | melting point [°C] |
| --- | --- | --- | --- | --- |
| 292 |  | CC1(C)CN(c2ccc3nc(C4CC4)c(-c4ccnc(F)c4)n3n2)CCN1 [Compound 53, 2-Cyclopropyl-6-(3,3-dimethylpiperazin-1-yl)-3-(2-fluoropyridin-4-yl)imidazo[1,2-b]pyridazine] | 319 |  |
|  | < 1 | Cc1nc2ccc(N3C[C@@H](C)N[C@@H](C)C3)nn2c1-c1ccncc1 [Compound 54, 6-(cis-3,5-Dimethylpiperazin-1-yl)-2-methyl-3-pyridin-4-ylimidazo[1,2-b]pyridazine] |  |  |
| 78 |  | Cc1nc2ccc(N3CCC4(CCCNC4)CC3)nn2c1-c1ccncc1 [Compound 78, 9-(2-Methyl-3-pyridin-4-yl-imidazo[1,2-b]pyridazin-6-yl)-2,9-diazaspiro[5.5]undecane] | 515 |  |

| Structure (SMILES) | IC50 [1] [nM] | IC50 (human CK1 delta) [nM] | CE Delta (t + 1 h) [2] [nM] | melting point [°C] |
| --- | --- | --- | --- | --- |
| Cc1nc2ccc(N3CC4CNCC4C3)nn2c1-c1ccncc1 (centres unmarked) [Compound 66, 6-Hexahydropyrrolo[3,4-c]pyrrol-2(1H)-yl-2-methyl-3-pyridin-4-ylimidazo[1,2-b]pyridazine] | 13 |  | 633 | 153 to 155 |
